Data as given in a melting point compilation (Tetko et al.).

Structure (SMILES) | melting point [°C]
CCOC(=S)SSC(=S)OCC | 30
Cn1ccc(S(=O)(=O)Cl)n1 | 36 to 39
COc1ccc(C(=O)c2cccc(C)c2)cc1C | 62.3
O=C=NS(=O)(=O)c1ccc(F)cc1 | 32 to 39
CCCC1C(=O)C2(C)CCC1C2(C)C (configuration not stated) | 128
CC(C)C1CC(=O)CC(=O)C1 | 80
COc1ccc(P2(=S)Nn3c(nnc3C(F)(F)F)S2)cc1 (configuration not stated) | 211
CCOC(=O)CCCCCCCCCCCCC(=O)OCC | 28 to 31
CNCc1ccc(N2CCOCC2)s1 | 38 to 39
COc1ccc(NN=C2C(=O)NC(=S)NC2=O)cc1 | 246
Cc1c(COC(=O)C2C(C=C(Cl)C(F)(F)F)C2(C)C)cccc1-c1ccccc1 (configuration not stated) | 79.6
N#CCC(=O)N1CCCCC1 | 88
c1ccc(C2(c3ccccc3)CC2C2=NCCN2)cc1 (configuration not stated) | 104
NC(=O)C(F)(F)C(F)F | 57 to 59
O=P(O)(O)CCCCP(=O)(O)O | 219 to 221
Cn1nc(CCl)c2ccccc21 | 62 to 63
Cc1cc(C)c(P(c2c(C)cc(C)cc2C)c2c(C)cc(C)cc2C)c(C)c1 | 187
N=C(N)S(=O)O | 126
CCC1C2CC3C4N(C)c5ccccc5C45CC(C2C5O)N3C1O (configuration not stated) | 159
C[C@]12CCC(=O)CC1CCC1=C2CC[C@]2(C)C(=O)CC[C@@H]12 (some centres not stated) | 148
O=C(O)C(F)(F)C(F)(F)C(F)(F)C(F)(F)C(F)(F)C(F)(F)C(F)(F)C(F)(F)C(F)(F)C(F)(F)C(F)(F)C(F)(F)C(F)(F)C(F)(F)C(F)(F)F | 154 to 155
Nc1nc(NC2CC2)c2ncn(C3C=CC(CO)C3)c2n1 (configuration not stated) | 165
CCC(C)Br (configuration not stated) | -112
O=C1/C(=C/c2ccc([N+](=O)[O-])cc2)SC(=S)N1CN1CCCCC1 | 160
CC(C)COC(=O)c1ccccc1C(=O)OCC(C)C | -64
CCCOCOCCC | -97.3
OCCC1CCCCC1 | -20

Structure (SMILES) | melting point [°C]
COc1cc(OC)nc(NC(=O)NS(=O)(=O)N(C)S(C)(=O)=O)n1 | 179
CC(=O)OC1=C(C(C)C)C(=O)C2=C(C1=O)C1(C)CCCC(C)(C)C1C(OC(C)=O)C2OC(C)=O (configuration not stated) | 89
C=C(C)CCCCCCCCCCC | -22
FC=C(F)F | -78
CCCCC(C)O (configuration not stated) | -23
Cc1cc(C)cc(C(=O)N(NC(=O)c2ccccc2)C(C)(C)C)c1 | 206
Cc1nn(C)c(C)c1C=O | 81.5
Cc1cc(CCl)nn1C | 63 to 66
Nc1ccc2c(c1)OCCO2 | 28
CC(=O)OC1CC2CCC1(C)C2(C)C (configuration not stated) | 29
O=C1CCCC(Cl)(Cl)C1(O)O | 120 to 124
N#Cc1ccc(C(Cl)C(Cl)c2cccc(C(Cl)C(Cl)c3ccc(C#N)cc3[N+](=O)[O-])c2)c([N+](=O)[O-])c1 (configuration not stated) | 248
Cc1cc(=O)[nH]c2c(/N=N/c3cccc([N+](=O)[O-])c3)c(N)nn12 | 318
Clc1ccc(CSC(Cn2cncn2)=Nc2ccc(Cl)cc2Cl)cc1 | 90
O=Cc1cc2nccnc2s1 | 108 to 109
Oc1ccc(Cl)cc1C1CCCCC1 | 59 to 60
Nc1ccc(C(F)(F)F)cc1N | 56 to 58
C=O | -92
Nc1nc(N)nc(-c2cc(Cl)ccc2Cl)n1 | 268
CCCCCSC | -94
COC1C(O)C(O)C(O)C(O)C1O (single isomer, unassigned; (-)) | 190 to 198
Fc1ccc2nc(Cl)sc2c1 | 91
BrCc1cccc2nsnc12 | 89 to 92
FC(F)(F)c1ccc(N2CCNCC2)cc1 | 89 to 92
CCCCCCCCCCCC(N)=O | 110
CSc1nc(N)nc(C23CC4CC(CC(C4)C2)C3)n1 | 208 to 210
CN1CSC(=S)N(C)C1 | 106

Further lines, results first:

melting point [°C] | Structure (SMILES)
175 to 176 | CCOC(=O)c1cnc2n(c1=O)CCS2
151 to 152 | O=P(c1ccccc1)(c1ccccc1)C1C=C(c2ccccc2)C=C(c2ccccc2)O1 (configuration not stated)
61 | N#CCC(=O)c1cccc(C(F)(F)F)c1
153 to 154 | CC(=O)C(=Cc1ccc(-c2cccc([N+](=O)[O-])c2)o1)C(C)=O
141 | NC(=O)c1ccc(Cl)c(Cl)c1
128 | CCOc1cccc2c(=O)c(=O)c12
274 | N=C1NC(=O)C(=NNc2ccccc2[N+](=O)[O-])S1
144 to 145 | CC(C)CCC[C@@H](C)[C@H]1CC[C@H]2[C@@H]3CC=C4C[C@@H](OCOc5ccc(Cl)cc5)CC[C@]4(C)[C@H]3CC[C@]12C
163 to 165 | CCOC(=O)c1c(NC(=S)Nc2ccc(OC)cc2)sc2c1CCCC2
139 to 140 | Clc1ncnc2sc(-c3ccccc3)cc12
278 | Nc1ccc([N+](=O)[O-])cc1C(=O)O
199 to 201 | CC1(c2ccccc2)NC(=O)NC1=O (configuration not stated)
134 to 137 | Cc1ccc(C(=O)C=Cc2cccc([N+](=O)[O-])c2)cc1
65 | CC(=O)Oc1ccccc1-c1ccccc1
129 to 130 | O=C(CCc1ccccc1)/C(=N\O)c1ccccc1
222 | O=C(c1ccc(O)c(O)c1)c1c(O)cc(O)cc1O
137 | Nc1ccc(CCc2ccc(N)cc2)cc1
233 | COc1ccc(Nc2[nH]c(=S)nnc2-c2ccccc2)cc1
136 to 139 | COC(=O)c1sc2scc(C)c2c1C
206 | COc1ccc(C2Nn3c(nnc3-c3cccc([N+](=O)[O-])c3)S2)cc1 (configuration not stated)
322 | CC(=O)Nc1ccc(C=Cc2ccc(NC(C)=O)cc2)cc1
163 to 165 | O=C(O)C=Cc1c(F)cccc1Cl
82 | CCCCCCCCCCCCOC(=O)c1ccc(N)cc1
94.5 | CCCCCCCCCCCCOc1ccc(N=Cc2ccc(N(C)C)cc2)cc1
-100 | CCOC(C)OCC

melting point [°C] | Structure (SMILES)
95 | CC(C)(C)C(=O)OCOc1ccccc1C(N)=O
265 | N#Cc1c(N=[N+]([O-])c2cnn(-c3ccccc3)c2C#N)cnn1-c1ccccc1
276 to 279 | N#Cc1c(C(F)(F)F)cc(Nc2cccc([N+](=O)[O-])c2)nc1Cl
146 | O=[N+]([O-])c1cc([N+](=O)[O-])c(/C(Cl)=C\c2ccccc2)cc1C(Cl)=Cc1ccccc1
32 | Cc1ccc(F)c(O)c1
233 to 234 | O=C(O)c1cn2ccsc2n1
114 | COC(CCNC1=CC(=O)c2ccccc2C1=O)OC
248 to 255 | CC(C)C(C)(N)P(=O)(O)O (configuration not stated)
-41 | CCC(C)CC(=O)O (racemic)
35 | CCc1ccccc1Cc1ccccc1N
200 to 203 | O=C(O)C=CC(=O)Nc1ccc(Cl)cc1
252 to 253 | O=C1CCC(c2ccc(NC(=O)C(Cl)Cl)cc2)=NN1
31.5 | Clc1nc2ccccc2s1
137 to 141 | CC(C)(C)[Si](C)(C)N1C(=O)C[C@@H]1C(=O)O
259 to 260 | O=C1c2ccccc2C(=O)N1c1cn[nH]c1
171 | CC(=O)Nc1cccc(NCC(=O)c2ccccc2)c1
88 to 89 | Nc1cccc(Cn2cncn2)c1
109 | CC(C)(C)OC(=O)NC(Cc1ccc(OCc2ccccc2)cc1)C(=O)O (configuration not stated)
114 | Cc1cc(C)c2c(-c3ccccc3)nn(-c3ccccc3)c2n1
158 | NNC(=O)c1cccc(Cl)c1
97 | CC(C)(C)OC(=O)N[C@H](CO)Cc1ccccc1
198 to 205 | Nc1cc(C(=O)O)ccc1O
46 to 47 | CCOC(=O)c1sc(Cl)nc1C
48.5 | CC(C)(Oc1ccc(Cl)cc1)C(=O)OCc1cccnc1
240 to 242 | Cn1ccc(-c2ccc(C(=O)O)cc2)n1

melting point [°C] | Structure (SMILES)
69.4 | CCCCCC(C)OC(=O)COc1ccc(Cl)c2cccnc12 (configuration not stated)
210 to 211 | CC1(C)OC(C)(C(O)(c2cccc3ccccc23)c2cccc3ccccc23)CCC1C(=O)O (configuration not stated)
250 | O=c1cc(-c2ccc(O)c(O)c2)oc2ccccc12
117 to 119 | CC(=NO)c1ccccn1
66 | COC(=O)C1=C(C)c2ccccc2C1
250 | Cc1ccc2cc(C(=O)O)ccc2n1
4 | CCOc1ccc(Br)cc1
83 | CC(=O)O[C@]12CC[C@@H](C(C)(C)C)C[C@H]1O[C@@H]2c1c(F)c(F)c(F)c(F)c1F
185 | O=C(O)c1ccc(F)cc1Cl
125 | COc1c(Br)ccc(C)c1C(=O)O
114 | COc1cc2c(c(OC)c1OC)C(=O)[C@]1(OC)C=C[C@H]2N(c2ccccc2)O1
156 | NC(=O)CS(=O)(=O)c1ccccc1
80 to 82 | N#Cc1ccc(Cn2cccn2)cc1
196 | O=C1C(C(O)c2c(Cl)cccc2Cl)C(C(F)(F)F)=NN1c1ccccc1 (configuration not stated)
212 | O=C(Nc1ccc2nn(C3CCCCC3)nc2c1)c1ccccc1
173 to 175 | Cc1ccc(Cc2c(N)n[nH]c2N)cc1
120 to 121 | Cc1c(CO)cnn1-c1ccc(F)cc1
173 | O=C(C1=NOC2C(=O)N(c3ccccc3[N+](=O)[O-])C(=O)C12)c1ccc(Cl)cc1 (configuration not stated)
248 | CN(C)CCC=C1c2ccccc2COc2ccc(CC(=O)O)cc21
32 | CCCCCCCCCCC(Br)C(=O)O (configuration not stated)
158 to 161 | NCCCCC(=O)O
108 to 112 | Cc1nc(-c2ccc(C(=O)Cl)s2)cs1
66 | CCCC(O)C(O)CO (configuration not stated)
